In patent publication US10149876B2, “Tripterygium wilfordii extracts to overcome chemotherapy resistance” (WESTERN UNIVERSITY OF HEALTH SCIENCES, priority 2012, dated 2018):
Values joined by “and” are separate entries in the source; they are usually repeats but may differ in a detail not shown here. Identical values can stand only once. Like-named read-outs stand apart in the source and are kept apart here.

What was measured:
PC3 cells = experiment: SRB cell viability assay, docetaxel-sensitive PC3 cells; type: cell-based; conditions: Homo sapiens, PC-3; read-out: IC50 of drug when cells treated with drug only
Protocol: (§1) The chemotherapeutic drugs that were tested for chemosensitization in combination with LTG-E were docetaxel, daunorubicin, Herceptin®, and lapatinib. […] Table 17 also contains the serially-diluted concentrations of drugs that each cell line was tested against.

DU145 cells = experiment: SRB cell viability assay, docetaxel-sensitive DU145 cells; type: cell-based; conditions: Homo sapiens; for viability at 1 pM: docetaxel 0.001 nM 72 h; for viability at 0.000333 µM: docetaxel 0.333 nM 72 h; for viability at 0.001 µM: docetaxel 1 nM 72 h; for viability at 0.00333 µM: docetaxel 3.33 nM 72 h; for viability at 0.01 µM: docetaxel 10 nM 72 h; for viability at 0.0333 µM: docetaxel 33.3 nM 72 h; for viability at 0.1 µM: docetaxel 100 nM 72 h; for IC50: DU-145
Protocol: as §1
Using the methods described in Example 2, the chemosensitizing effect of LGT-E pretreatment on docetaxel-treated DU145 cells was studied. […] Table 20 reports control data obtained from DU145 cells that were not pre-treated with LGT-E. FIG. 7 summarizes the data of Tables 19 and 20 in a graphical format.

K562/Dox cells = experiment: SRB cell viability assay, daunorubicin-resistant K562/Dox cells; type: cell-based, human; conditions: 72 h, background = 0.043
[1] = DU-145, read-out: % viable, DU145, LGT-E 50 μg/ml pre-treatment
[2] = DU-145, read-out: % viable, DU145, no LGT-E pre-treatment

Question: How did the IC50 (PC3 cells) turn out when `CC(=O)O[C@@]12CO[C@@H]1C[C@H](O)[C@@]1(C)C(=O)[C@H](O)C3=C(C)[C@@H](OC(=O)[C@H](O)[C@@H](NC(=O)OC(C)(C)C)c4ccccc4)C[C@@](O)([C@@H](OC(=O)c4ccccc4)[C@H]21)C3(C)C` [Docetaxel, docetaxel] was run?
Answer: Its IC50 is 1.8 nM and 0.00145 µg/mL.

Question: What about the viability at 1 pM (DU145 cells; [1]) of the same molecule?
Answer: The viability at 1 pM was 100%.

Question: What about the viability at 0.000333 µM (DU145 cells; [1]) of the same molecule?
Answer: The viability at 0.000333 µM was 100%.

Question: And the viability at 0.001 µM (DU145 cells; [1])?
Answer: Its viability at 0.001 µM is 97.4%.

Question: And the viability at 0.00333 µM (DU145 cells; [1])?
Answer: The viability at 0.00333 µM was 54%.

Question: And the viability at 0.01 µM (DU145 cells; [1])?
Answer: Its viability at 0.01 µM is 23.9%.

Question: What about the viability at 0.0333 µM (DU145 cells; [1]) of the same molecule?
Answer: Its viability at 0.0333 µM is 9.6%.

Question: What about the viability at 0.1 µM (DU145 cells; [1]) of the same molecule?
Answer: Its viability at 0.1 µM is 9.3%.

Question: What about the viability at 1 pM (DU145 cells; [2]) of the same molecule?
Answer: The viability at 1 pM was 100%.

Question: And the viability at 0.0001 µM (DU145 cells; DU-145, read-out: % viable, DU145, no LGT-E pre-treatment, docetaxel 0.1 nM 72 h)?
Answer: The viability at 0.0001 µM was 100%.

Question: And the viability at 0.000333 µM (DU145 cells; [2])?
Answer: The viability at 0.000333 µM was 101%.

Question: And the viability at 0.001 µM (DU145 cells; [2])?
Answer: The viability at 0.001 µM was 100%.

Question: What about the viability at 0.00333 µM (DU145 cells; [2]) of the same molecule?
Answer: The viability at 0.00333 µM was 86.9%.

Question: And the viability at 0.01 µM (DU145 cells; [2])?
Answer: Its viability at 0.01 µM is 44.4%.

Question: What about the viability at 0.0333 µM (DU145 cells; [2]) of the same molecule?
Answer: Its viability at 0.0333 µM is 24.1%.

Question: And the viability at 0.1 µM (DU145 cells; [2])?
Answer: The viability at 0.1 µM was 21.8%.

Question: And the IC50 (DU145 cells; read-out: IC50 of drug when cells pre-treated with Chemosensitizing Agent before drug treatment)?
Answer: Its IC50 is 3.39 nM and 0.00274 µg/mL.

Question: And the IC50 (DU145 cells; read-out: IC50 of drug when cells treated with drug only)?
Answer: The IC50 was 6.65 nM and 0.00537 µg/mL.

Question: And the “mean A at 565 nm” value (K562/Dox cells; Docetaxel 0.001 nM (so in the source), no LGT-E pre-treatment)?
Answer: The value was 2.771.

Question: What about the “mean A at 565 nm” value (K562/Dox cells; Docetaxel 0.001 nM (so in the source), pre-treated with 25 μg/ml LGT-E) of the same molecule?
Answer: The value was 2.747.

Question: What about the “mean A at 565 nm” value (K562/Dox cells; Docetaxel 0.1 nM (so in the source), no LGT-E pre-treatment) of the same molecule?
Answer: The value was 2.933.

Question: What about the “mean A at 565 nm” value (K562/Dox cells; Docetaxel 0.1 nM (so in the source), pre-treated with 25 μg/ml LGT-E) of the same molecule?
Answer: The value was 2.848.

Question: And the “mean A at 565 nm” value (K562/Dox cells; Docetaxel 0.333 nM (so in the source), no LGT-E pre-treatment)?
Answer: The value was 2.960.

Question: And the “mean A at 565 nm” value (K562/Dox cells; Docetaxel 0.333 nM (so in the source), pre-treated with 25 μg/ml LGT-E)?
Answer: The value was 2.811.

Question: What about the “mean A at 565 nm” value (K562/Dox cells; Docetaxel 1 nM (so in the source), no LGT-E pre-treatment) of the same molecule?
Answer: The value was 2.509.

Question: And the “mean A at 565 nm” value (K562/Dox cells; Docetaxel 1 nM (so in the source), pre-treated with 25 μg/ml LGT-E)?
Answer: The value was 2.706.

Question: What about the “mean A at 565 nm” value (K562/Dox cells; Docetaxel 3.33 nM (so in the source), no LGT-E pre-treatment) of the same molecule?
Answer: The value was 2.848.

Question: And the “mean A at 565 nm” value (K562/Dox cells; Docetaxel 3.33 nM (so in the source), pre-treated with 25 μg/ml LGT-E)?
Answer: Its value is 2.300.

Question: What about the “mean A at 565 nm” value (K562/Dox cells; Docetaxel 10 nM (so in the source), no LGT-E pre-treatment) of the same molecule?
Answer: The value was 2.716.

Question: What about the “mean A at 565 nm” value (K562/Dox cells; Docetaxel 10 nM (so in the source), pre-treated with 25 μg/ml LGT-E) of the same molecule?
Answer: The value was 1.259.

Question: And the “mean A at 565 nm” value (K562/Dox cells; Docetaxel 33.3 nM (so in the source), pre-treated with 25 μg/ml LGT-E)?
Answer: Its value is 1.175.

Question: What about the “mean A at 565 nm” value (K562/Dox cells; Docetaxel 100 nM (so in the source), no LGT-E pre-treatment) of the same molecule?
Answer: The value was 0.723.

Question: And the “mean A at 565 nm” value (K562/Dox cells; Docetaxel 100 nM (so in the source), pre-treated with 25 μg/ml LGT-E)?
Answer: The value was 0.510.
